Results from patent US20240368177A1, “5-AMINO-6,8-DIHYDRO-1H-FURO[3,4-d]PYRROLO[3,2-b]PYRIDINE-2-CARBOXAMIDE DERIVATIVES AS MTA-COOPERATIVE INHIBITORS OF PRMT5” (BeiGene Switzerland GmbH, priority 2023, published 2024).

Columns and labels:
[1] = tested on: HCT116-mock-RNA-KO; assay: Cell killing in HCT116 isogenic pair (Cell Titer-Glo viability), mock knock-out cells with MTAP wildtype genotype; format: cell-based, human; conditions: 6 days incubation, 0-10 μM
Procedure, shortened: (§1)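 HCT116 MTAP-knockout or mock-knockout (MTAP wildtype) cells in RPMI 1640 with 10% FBS were seeded overnight, then exposed to test compound at 0–10 μM final for 6 days at 37° C. Viability was measured by CellTiter-Glo luminescence and IC50 was fitted.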

[2] = tested on: HCT116-MTAP-KO; assay: Cell killing in HCT116 isogenic pair (Cell Titer-Glo viability), MTAP knock-out cells; format: cell-based, human; conditions: 6 days incubation, 0-10 μM, * = more than 50% viability inhibition at tested concentration without a full curve
Procedure, shortened: as §1

SMILES: CCN(C(=O)c1cc2nc(N)c3c(c2[nH]1)COC3)[C@H](C)c1ccc(C(F)(F)F)cn1 [Example 115, (R)-5-amino-N-ethyl-N-(1-(5-(trifluoromethyl)pyridin-2-yl)ethyl)-6,8-dihydro-1H-furo[3,4-d]pyrrolo[3,2-b]pyridine-2-carboxamide]
- IC50 ([1]; Homo sapiens, HCT-116, 144 h): 6820 nM
- IC50 ([2]; Homo sapiens, HCT-116, 144 h): 43 nM

SMILES: CCC(CC)N(Cc1c(F)cc(C(F)(F)F)cc1F)C(=O)c1cc2nc(N)c3c(c2[nH]1)CO[C@@H]3C [Example 116, (R)-5-amino-N-(2,6-difluoro-4-(trifluoromethyl)benzyl)-6-methyl-N-(pentan-3-yl)-6,8-dihydro-1H-furo[3,4-d]pyrrolo[3,2-b]pyridine-2-carboxamide]
- IC50 ([1]; Homo sapiens, HCT-116, 144 h): 269 nM
- IC50 ([2]; Homo sapiens, HCT-116, 144 h): 6.9 nM

SMILES: CCC(CC)N(Cc1ncc(N2CCOCC2)cc1F)C(=O)c1cc2nc(N)c3c(c2[nH]1)COC3 [Example 117, 5-amino-N-((3-fluoro-5-morpholinopyridin-2-yl)methyl)-N-(pentan-3-yl)-6,8-dihydro-1H-furo[3,4-d]pyrrolo[3,2-b]pyridine-2-carboxamide]
- IC50 ([1]; Homo sapiens, HCT-116, 144 h): 609 nM
- IC50 ([2]; Homo sapiens, HCT-116, 144 h): 6.5 nM

SMILES: C[C@@H](c1ncc(C2CC2)cc1F)N(C)C(=O)c1cc2nc(N)c3c(c2[nH]1)COC3 [Example 118, (S)-5-amino-N-(1-(5-cyclopropyl-3-fluoropyridin-2-yl)ethyl)-N-methyl-6,8-dihydro-1H-furo[3,4-d]pyrrolo[3,2-b]pyridine-2-carboxamide]
- IC50 ([1]; Homo sapiens, HCT-116, 144 h): > 10000 nM
- IC50 ([2]; Homo sapiens, HCT-116, 144 h): 2250 nM

SMILES: C[C@H](c1ncc(C2CC2)cc1F)N(C)C(=O)c1cc2nc(N)c3c(c2[nH]1)COC3 [Example 119, (R)-5-amino-N-(1-(5-cyclopropyl-3-fluoropyridin-2-yl)ethyl)-N-methyl-6,8-dihydro-1H-furo[3,4-d]pyrrolo[3,2-b]pyridine-2-carboxamide]
- IC50 ([1]; Homo sapiens, HCT-116, 144 h): 1590 nM
- IC50 ([2]; Homo sapiens, HCT-116, 144 h): 9.8 nM

SMILES: CCN(C(=O)c1cc2nc(N)c3c(c2[nH]1)COC3)[C@H](C)c1ncc(C2CC2)cc1F [Example 120, (R)-5-amino-N-(1-(5-cyclopropyl-3-fluoropyridin-2-yl)ethyl)-N-ethyl-6,8-dihydro-1H-furo[3,4-d]pyrrolo[3,2-b]pyridine-2-carboxamide]
- IC50 ([1]; Homo sapiens, HCT-116, 144 h): 992 nM
- IC50 ([2]; Homo sapiens, HCT-116, 144 h): 5.6 nM

SMILES: CCN(C(=O)c1cc2nc(N)c3c(c2[nH]1)COC3)[C@@H](C)c1ncc(C2CC2)cc1F [Example 121, (S)-5-amino-N-(1-(5-cyclopropyl-3-fluoropyridin-2-yl)ethyl)-N-ethyl-6,8-dihydro-1H-furo[3,4-d]pyrrolo[3,2-b]pyridine-2-carboxamide]
- IC50 ([1]; Homo sapiens, HCT-116, 144 h): > 10000 nM
- IC50 ([2]; Homo sapiens, HCT-116, 144 h): 586 nM

SMILES: C[C@@H](c1c(F)cc(Br)cc1F)N(C)C(=O)c1cc2nc(N)c3c(c2[nH]1)COC3 [Example 122, (S)-5-amino-N-(1-(4-bromo-2,6-difluorophenyl)ethyl)-N-methyl-6,8-dihydro-1H-furo[3,4-d]pyrrolo[3,2-b]pyridine-2-carboxamide]
- IC50 ([1]; Homo sapiens, HCT-116, 144 h): 5780 nM
- IC50 ([2]; Homo sapiens, HCT-116, 144 h): 2220 nM

SMILES: C[C@H](c1c(F)cc(Br)cc1F)N(C)C(=O)c1cc2nc(N)c3c(c2[nH]1)COC3 [Example 123, (R)-5-amino-N-(1-(4-bromo-2,6-difluorophenyl)ethyl)-N-methyl-6,8-dihydro-1H-furo[3,4-d]pyrrolo[3,2-b]pyridine-2-carboxamide]
- IC50 ([1]; Homo sapiens, HCT-116, 144 h): 4910 nM
- IC50 ([2]; Homo sapiens, HCT-116, 144 h): 46 nM

SMILES: CCN(C(=O)c1cc2nc(N)c3c(c2[nH]1)CO[C@@H]3C)[C@H](C)c1ccc(Br)cc1F [Example 124, (R)-5-amino-N—((R)-1-(4-bromo-2-fluorophenyl)ethyl)-N-ethyl-6-methyl-6,8-dihydro-1H-furo[3,4-d]pyrrolo[3,2-b]pyridine-2-carboxamide]
- IC50 ([1]; Homo sapiens, HCT-116, 144 h): 2470 nM
- IC50 ([2]; Homo sapiens, HCT-116, 144 h): 22 nM

SMILES: CCN(C(=O)c1cc2nc(N)c3c(c2[nH]1)CO[C@@H]3C)[C@@H](C)c1ccc(Br)cc1F [Example 125]
- IC50 [1]: 7460 nM
- IC50 [2]: 365 nM

SMILES: CCN(C(=O)c1cc2nc(N)c3c(c2[nH]1)CO[C@@H]3C)[C@H](C)c1ccc(C(F)(F)F)cc1F [Example 126, (R)-5-amino-N-ethyl-N—((R)-1-(2-fluoro-4-(trifluoromethyl)phenyl)ethyl)-6-methyl-6,8-dihydro-1H-furo[3,4-d]pyrrolo[3,2-b]pyridine-2-carboxamide]
- IC50 ([1]; Homo sapiens, HCT-116, 144 h): 1720 nM
- IC50 ([2]; Homo sapiens, HCT-116, 144 h): 11 nM

SMILES: CCN(C(=O)c1cc2nc(N)c3c(c2[nH]1)CO[C@@H]3C)[C@@H](C)c1ccc(C(F)(F)F)cc1F [Example 127, (R)-5-amino-N-ethyl-N—((S)-1-(2-fluoro-4-(trifluoromethyl)phenyl)ethyl)-6-methyl-6,8-dihydro-1H-furo[3,4-d]pyrrolo[3,2-b]pyridine-2-carboxamide]
- IC50 ([1]; Homo sapiens, HCT-116, 144 h): 5900 nM
- IC50 ([2]; Homo sapiens, HCT-116, 144 h): 236 nM

SMILES: CCN(C(=O)c1cc2nc(N)c3c(c2[nH]1)CO[C@@H]3C)[C@H](C)c1ncc(Br)cc1F [Example 128, (R)-5-amino-N—((R)-1-(5-bromo-3-fluoropyridin-2-yl)ethyl)-N-ethyl-6-methyl-6,8-dihydro-1H-furo[3,4-d]pyrrolo[3,2-b]pyridine-2-carboxamide]
- IC50 ([1]; Homo sapiens, HCT-116, 144 h): 1050 nM
- IC50 ([2]; Homo sapiens, HCT-116, 144 h): 6 nM

SMILES: CCN(C(=O)c1cc2nc(N)c3c(c2[nH]1)CO[C@@H]3C)[C@@H](C)c1ncc(Br)cc1F [Example 129, (R)-5-amino-N—((S)-1-(5-bromo-3-fluoropyridin-2-yl)ethyl)-N-ethyl-6-methyl-6,8-dihydro-1H-furo[3,4-d]pyrrolo[3,2-b]pyridine-2-carboxamide]
- IC50 ([1]; Homo sapiens, HCT-116, 144 h): > 10000 nM
- IC50 ([2]; Homo sapiens, HCT-116, 144 h): 1180 nM

SMILES: CCN(C(=O)c1cc2nc(N)c3c(c2[nH]1)CO[C@@H]3C)[C@H](C)c1ncc(C(F)(F)F)cc1F [Example 130, (R)-5-amino-N-ethyl-N—((R)-1-(3-fluoro-5-(trifluoromethyl)pyridin-2-yl)ethyl)-6-methyl-6,8-dihydro-1H-furo[3,4-d]pyrrolo[3,2-b]pyridine-2-carboxamide]
- IC50 ([1]; Homo sapiens, HCT-116, 144 h): 1090 nM
- IC50 ([2]; Homo sapiens, HCT-116, 144 h): 8.5 nM

SMILES: CCN(C(=O)c1cc2nc(N)c3c(c2[nH]1)CO[C@@H]3C)[C@@H](C)c1ncc(C(F)(F)F)cc1F [Example 131, (R)-5-amino-N-ethyl-N—((S)-1-(3-fluoro-5-(trifluoromethyl)pyridin-2-yl)ethyl)-6-methyl-6,8-dihydro-1H-furo[3,4-d]pyrrolo[3,2-b]pyridine-2-carboxamide]
- IC50 ([1]; Homo sapiens, HCT-116, 144 h): > 10000 nM
- IC50 ([2]; Homo sapiens, HCT-116, 144 h): 1830 nM

SMILES: CCN(C(=O)c1cc2nc(N)c3c(c2[nH]1)COC3)[C@H](C)c1ncc(N2CCOCC2)cc1F [Example 132, 5-amino-N-ethyl-N-(1-(3-fluoro-5-morpholinopyridin-2-yl)ethyl)-6,8-dihydro-1H-furo[3,4-d]pyrrolo[3,2-b]pyridine-2-carboxamide]
- IC50 ([1]; Homo sapiens, HCT-116, 144 h): > 10000 nM
- IC50 ([2]; Homo sapiens, HCT-116, 144 h): 45 nM

SMILES: CCN(C(=O)c1cc2nc(N)c3c(c2[nH]1)COC3)[C@H](C)c1ccc(Br)cc1F [Example 133, (R)-5-amino-N-(1-(4-bromo-2-fluorophenyl)ethyl)-N-ethyl-6,8-dihydro-1H-furo[3,4-d]pyrrolo[3,2-b]pyridine-2-carboxamide]
- IC50 ([1]; Homo sapiens, HCT-116, 144 h): 1340 nM
- IC50 ([2]; Homo sapiens, HCT-116, 144 h): 13 nM

SMILES: CCN(C(=O)c1cc2nc(N)c3c(c2[nH]1)COC3)[C@@H](C)c1ccc(Br)cc1F [Example 134, (S)-5-amino-N-(1-(4-bromo-2-fluorophenyl)ethyl)-N-ethyl-6,8-dihydro-1H-furo[3,4-d]pyrrolo[3,2-b]pyridine-2-carboxamide]
- IC50 ([1]; Homo sapiens, HCT-116, 144 h): 2880 nM
- IC50 ([2]; Homo sapiens, HCT-116, 144 h): 336 nM
